Results published in patent US8349839B2, “Inhibitors of HIV replication” (Boehringer Ingelheim International GmbH, priority 2009, dated 2013).

Tests used:
[1] = target: HIV reverse transcriptase (Human immunodeficiency virus type 1 group M subtype B, UniProt P04585); assay: HIV Reverse Transcriptase Assay (IC50); assay type: biochemical; conditions: assay of Example 67; 1 mM of ATP added to the reaction mixture
Method: (§1) Diluted solutions of stock solutions of compounds of Formula I in DMSO are prepared in assay buffer in Eppendorf tubes 16 h prior to their use in the biological assay, using a minimal supplementary volume of 75 μL of assay buffer in addition to the volume required in the assay. The samples are vortexed for 10 min at RT and incubated for 16 h at 4° C. The equilibrated solutions are centrifuged at 16 000 g for 5 min in a centrifuge equipped with an internal chiller, which is pre-equilibrated at 4° C., and the supernatant is collected. The portion of supernatant required for the serial dilutions in the biological assay is transferred to the compound dilution plate and a 75 μL portion of the remaining supernatant is transferred to a 1.4 mL tube (Micronic). A 25 μL volume of DMSO is promptly added and the sample is submitted for concentration determination by HPLC, along with the stock solution of the compound in DMSO as a standard for concentration determination analysis.
HIV Reverse Transcriptase Assay (IC50)
The assay used to measure inhibition of HIV reverse transcriptase is as described in WO 2006/034583, pages 52-53, incorporated herein by reference, except that 1 mM of ATP was added to the reaction mixture.

[2] = tested on: HIV-1 replication in C8166 LTRluc cells; assay: C8166 HIV-1 Luciferase Assay (EC50); assay type: cell-based; conditions: Human immunodeficiency virus 1, 72 h; assay of Example 68; C8166 LTRluc cells infected with HIV-1 at moi 0.005, 3 days
Method: as §1
C8166 HIV-1 Luciferase Assay (EC50)
The assay used to measure inhibition of HIV replication is as described in WO 2004/050643, pages 73-75, incorporated herein by reference, with the following modifications:
Serial dilutions of HIV-1 inhibitors are prepared in complete media from DMSO stock solutions. Eleven serial dilutions of desired concentration are prepared in a 1 mL deep well titer plate (96 wells). The 12th well contains complete media with no inhibitor and serves as the positive control. All samples contain the same concentration of DMSO (<0.1% DMSO). Inhibitor is added, to triplicate wells, of a 96 well tissue culture treated clear view black microtiter plate (Corning Costar catalogue #3904). The total volume per well is 200 μL of media containing the cells and inhibitor. The last row is reserved for uninfected C8166 LTRluc cells to serve as the background blank control and the first row is media alone.
Count C8166 LTRluc cells and place in a minimal volume of complete RPMI 1640 in a tissue culture flask (ex. 30×10^6 cells in 10 mL media/25 cm^2 flask). Infect cells with HIV-1 at a moi of 0.005. Incubate cells for 1.5 h at 37° C. on a rotating rack in a 5% CO2 incubator. Resuspend cells in complete RPMI to give a final concentration of 25,000-cells/well. Add cells to wells of 96 well microtiter plate containing inhibitors. Add 25,000 uninfected C8166-LTRluc cells/well in 200 μL complete RPMI to last row for background control. Incubate cells at 37° C. in 5% CO2 incubator for 3 days.
50 μL Steady Glo (luciferase substrate T1/2=5 hours Promega catalogue # E2520) is added to each well of the 96 well plate. The relative light units (RLU) of luciferase are determined using a luminescence plate reader. The calculated % inhibition values are used to determine EC50, slope factor (n) and maximum inhibition (Imax).

| SMILES | IC50 [1] [nM] | EC50 [2] [nM] |
| --- | --- | --- |
| O=c1nc(-c2ccccc2)c2oc3ccccc3c2n1CCN1CCCC1 [Compound 1001] | 2350 | – |
| CN1CCN(CC(=O)Nc2ccc(-c3nc(=O)n(C)c4c3oc3ccccc34)cc2)CC1 [Compound 1002] | 11000 | 15000 |
| COCCn1c(=O)nc(-c2ccc(NC(=O)CN(C)C)cc2)c2oc3ccccc3c21 [Compound 1004] | 1150 | 3600 |
| COCCn1c(=O)nc(-c2ccc(NC(=O)CN3CCOCC3)cc2)c2oc3ccccc3c21 [Compound 1005] | 215 | – |
| CCNCC(=O)Nc1ccc(-c2nc(=O)n(CCOC)c3c2oc2ccccc23)cc1 [Compound 1009] | 73 | 675 |
| COCCn1c(=O)nc(-c2ccc(NC(=O)NCCN3CCCC3)cc2)c2oc3ccccc3c21 [Compound 1016] | 107 | 6800 |
| COCCn1c(=O)nc(-c2ccc(OCCN(C)C)cc2)c2oc3ccccc3c21 [Compound 1036] | 633 | 14000 |
| CCNCC(=O)Nc1ccc(-c2nc(=O)n(C)c3c2oc2ccccc23)cc1 [Compound 1051] | 520 | 980 |
| COCCn1c(=O)nc(-c2ccc(NC(=O)CN3CCCC3)c(OC)c2)c2oc3ccccc3c21 [Compound 1056] | 2500 | – |
| COCCn1c(=O)nc(-c2ccc(N(C)CCN(C)C)nc2)c2oc3ccccc3c21 [Compound 1070] | 310 | 1200 |
| COCCn1c(=O)nc(-c2ccc(N3CCN(C(C)C)CC3)nc2)c2oc3ccccc3c21 [Compound 1073] | 107 | 720 |
| O=c1nc(-c2ccccc2)c2oc3ccc(Cl)cc3c2n1CCN1CCCC1 [Compound 2001] | 593 | 3700 |
| O=c1nc(-c2ccccc2)c2oc3ccc(Cl)cc3c2n1CCN1CCC(F)(F)C1 [Compound 2009] | 323 | 2900 |
| CCNCC(=O)Nc1ccc(-c2nc(=O)n(CCOC)c3c2oc2ccc(-c4cncs4)cc23)cc1 [Compound 2021] | 20 | 200 |
| CN1CCc2cc(-c3ccc4oc5c(-c6ccc(F)cc6)nc(=O)n(CCN6CCCC6C(N)=O)c5c4c3)ccc2C1 (centres unmarked) [Compound 2025] | 35 | 52 |
| CC(=O)N(C)C1CCN(CCn2c(=O)nc(-c3ccccc3)c3oc4ccc(Br)cc4c32)C1 (centres unmarked) [Compound 2038] | 250 | 2900 |
| CCNCC(=O)Nc1ccc(-c2nc(=O)n(CCOC)c3c2oc2ccc(-c4ccc5c(c4)N(C)CCC5)cc23)cc1 [Compound 2039] | 24 | 440 |
| CCNCC(=O)Nc1ccc(-c2nc(=O)n(CCOC)c3c2oc2ccc(-c4cccc5c4CCN(C)C5)cc23)cc1 [Compound 2115] | 1150 | – |
| COCCn1c(=O)nc(-c2ccc(N)cc2)c2oc3ccc(Br)cc3c21 [Compound 2133] | 760 | 4650 |

| SMILES | IC50 [1] [nM] | EC50 [2] [nM] |
| --- | --- | --- |
| COCCn1c(=O)nc(-c2ccc(NS(C)(=O)=O)cc2)c2oc3ccc(-c4ccc(CN(C)C)cc4)cc3c21 [Compound 2194] | 395 | 1500 |
| CN(C)Cc1ccc(-c2ccc3oc4c(-c5ccccc5)nc(=O)n(-c5ccccc5)c4c3c2)cc1 [Compound 2213] | 86 | 235 |
| CN1CCN(c2ccc(-c3nc(=O)n(CCN4CCCC4)c4c3oc3ccc(Cl)cc34)cn2)CC1 [Compound 2232] | 22 | 240 |
| CNC1CCN(c2ccc(-c3nc(=O)n(CCOC)c4c3oc3ccc(Cl)cc34)cn2)C1 (centres unmarked) [Compound 2254] | 40 | 210 |
| CN1CCN(c2ccc(-c3nc(=O)n(C)c4c3oc3ccc(Br)cc34)cn2)CC1 [Compound 2257] | 31 | 190 |
| COCCn1c(=O)nc(-c2ccc(N3CCN(C)CC3)nc2)c2oc3ccc(Cl)cc3c21 [Compound 2260] | 75 | 890 |
| CCNCc1nc2cc(-c3nc(=O)n(CCCOC)c4c3oc3ccc(Cl)cc34)ccc2n1C [Compound 2273] | 8 | 58 |
| CC(C)N1CCN(c2ccc(-c3nc(=O)n(CC(=O)N4CC[C@H](F)C4)c4c3oc3ccc(Cl)cc34)cn2)CC1 [Compound 2277] | 7 | 92 |
| CCCCCn1c(=O)nc(-c2ccc3c(c2)nc(C)n3C)c2oc3ccc(-c4cnn(C)c4)cc3c21 [Compound 2287] | 5 | 18 |
| CN(C)Cc1ccc(-c2ccc3oc4c(-c5ccccc5)nc(=O)n(CC(=O)NC5CC5)c4c3c2)cc1 [Compound 2310] | 1000 | – |
| CN(C)Cc1ccc(-c2ccc3oc4c(c3c2)N(CC2CCCO2)S(=O)(=O)N=C4c2ccccc2)cc1 (centres unmarked) [Compound 3003] | > 225 | 950 |
| COCCCN1c2c(oc3ccc(-c4ccc(CN(C)C)cc4)cc23)C(c2ccccc2)=NS1(=O)=O [Compound 3004] | > 205 | 520 |
| O=C(O)Cn1c2ccc(Cl)cc2c2c1c(-c1ccccc1)nc(=O)n2CCN1CCCC1 [Compound 4001] | 280 | 5800 |
| COCCCN1CCN(c2ccc(-c3nc(=O)n(CCCOC)c4c3oc3ncccc34)cn2)CC1 [Compound 5001] | 60 | 590 |
| COCCCn1c(=O)nc(-c2ccc(N3CCC(NCC(F)F)CC3)nc2)c2oc3ncc(-c4cnn(C)c4)cc3c21 [Compound 5004] | 14 | – |
| COCCCn1c(=O)nc(-c2ccc(N3CCN(C(C)C)CC3)nc2)c2oc3cnccc3c21 [Compound 5019] | 25 | 280 |
| CCCCCn1c(=O)nc(-c2ccc(N3CCN(C)CC3)nc2)c2oc3ncc(C#N)cc3c21 [Compound 5024] | 6 | 32 |
| COCCCn1c(=O)nc(-c2ccc(N3CCN(C)CC3)nc2)c2oc3ncc(-c4cncs4)cc3c21 [Compound 5028] | 4.1 | 21 |
